Our source for the Kd values is ChEMBL document CHEMBL5506047, “Impact of Combinatorial Histone Modifications on Acetyllysine Recognition by the ATAD2 and ATAD2B Bromodomains” (J Med Chem, 2024).

The target of test [1] is T1, ATPase family AAA domain-containing protein 2 (Homo sapiens, UniProt Q6PL18).
T1 sequence (Q6PL18 whole entry): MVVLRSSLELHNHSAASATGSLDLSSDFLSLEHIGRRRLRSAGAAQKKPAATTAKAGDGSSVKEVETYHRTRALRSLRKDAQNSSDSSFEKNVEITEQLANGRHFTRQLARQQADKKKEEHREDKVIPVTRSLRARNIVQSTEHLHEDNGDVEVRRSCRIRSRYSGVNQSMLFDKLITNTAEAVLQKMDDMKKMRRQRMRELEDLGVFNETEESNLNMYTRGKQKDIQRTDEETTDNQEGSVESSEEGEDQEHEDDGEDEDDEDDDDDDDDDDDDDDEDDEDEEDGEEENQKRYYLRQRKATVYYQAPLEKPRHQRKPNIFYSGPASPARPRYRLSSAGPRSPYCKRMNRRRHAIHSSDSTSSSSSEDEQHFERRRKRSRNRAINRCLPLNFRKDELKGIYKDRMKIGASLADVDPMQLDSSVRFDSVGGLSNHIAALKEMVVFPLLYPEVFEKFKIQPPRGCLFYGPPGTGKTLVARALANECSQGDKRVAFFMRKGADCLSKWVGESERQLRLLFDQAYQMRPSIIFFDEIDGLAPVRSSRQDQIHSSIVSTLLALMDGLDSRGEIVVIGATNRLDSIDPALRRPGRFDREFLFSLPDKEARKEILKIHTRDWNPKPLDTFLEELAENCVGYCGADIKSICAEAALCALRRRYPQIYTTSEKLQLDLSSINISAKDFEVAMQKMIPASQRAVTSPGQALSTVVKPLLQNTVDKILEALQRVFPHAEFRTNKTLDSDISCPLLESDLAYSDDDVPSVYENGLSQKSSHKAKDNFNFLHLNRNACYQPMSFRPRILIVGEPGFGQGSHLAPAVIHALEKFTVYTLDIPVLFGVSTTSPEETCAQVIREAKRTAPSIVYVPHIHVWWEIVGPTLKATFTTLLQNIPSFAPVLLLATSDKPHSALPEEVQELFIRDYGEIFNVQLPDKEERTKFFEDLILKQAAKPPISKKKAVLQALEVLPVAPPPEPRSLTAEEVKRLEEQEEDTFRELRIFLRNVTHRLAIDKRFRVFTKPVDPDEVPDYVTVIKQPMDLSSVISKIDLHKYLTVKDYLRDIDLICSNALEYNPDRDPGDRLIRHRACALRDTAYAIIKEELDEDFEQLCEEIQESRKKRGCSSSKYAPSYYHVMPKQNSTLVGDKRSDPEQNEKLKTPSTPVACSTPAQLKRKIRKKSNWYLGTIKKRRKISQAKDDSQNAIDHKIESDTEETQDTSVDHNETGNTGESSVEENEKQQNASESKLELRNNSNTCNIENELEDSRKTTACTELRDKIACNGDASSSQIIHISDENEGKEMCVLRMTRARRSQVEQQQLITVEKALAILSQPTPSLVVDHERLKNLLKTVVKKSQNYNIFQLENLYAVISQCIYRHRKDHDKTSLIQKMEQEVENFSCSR
Briefly: Binding affinity to human ATAD2 BRD assessed as dissociation constant by isothermal titration calorimetry. On the technique in general: In ITC the heat of successive injections is recorded.

Test [2] concerns the target T2, ATPase family AAA domain-containing protein 2B (Homo sapiens, UniProt Q9ULI0).
T2 sequence (Q9ULI0 whole entry): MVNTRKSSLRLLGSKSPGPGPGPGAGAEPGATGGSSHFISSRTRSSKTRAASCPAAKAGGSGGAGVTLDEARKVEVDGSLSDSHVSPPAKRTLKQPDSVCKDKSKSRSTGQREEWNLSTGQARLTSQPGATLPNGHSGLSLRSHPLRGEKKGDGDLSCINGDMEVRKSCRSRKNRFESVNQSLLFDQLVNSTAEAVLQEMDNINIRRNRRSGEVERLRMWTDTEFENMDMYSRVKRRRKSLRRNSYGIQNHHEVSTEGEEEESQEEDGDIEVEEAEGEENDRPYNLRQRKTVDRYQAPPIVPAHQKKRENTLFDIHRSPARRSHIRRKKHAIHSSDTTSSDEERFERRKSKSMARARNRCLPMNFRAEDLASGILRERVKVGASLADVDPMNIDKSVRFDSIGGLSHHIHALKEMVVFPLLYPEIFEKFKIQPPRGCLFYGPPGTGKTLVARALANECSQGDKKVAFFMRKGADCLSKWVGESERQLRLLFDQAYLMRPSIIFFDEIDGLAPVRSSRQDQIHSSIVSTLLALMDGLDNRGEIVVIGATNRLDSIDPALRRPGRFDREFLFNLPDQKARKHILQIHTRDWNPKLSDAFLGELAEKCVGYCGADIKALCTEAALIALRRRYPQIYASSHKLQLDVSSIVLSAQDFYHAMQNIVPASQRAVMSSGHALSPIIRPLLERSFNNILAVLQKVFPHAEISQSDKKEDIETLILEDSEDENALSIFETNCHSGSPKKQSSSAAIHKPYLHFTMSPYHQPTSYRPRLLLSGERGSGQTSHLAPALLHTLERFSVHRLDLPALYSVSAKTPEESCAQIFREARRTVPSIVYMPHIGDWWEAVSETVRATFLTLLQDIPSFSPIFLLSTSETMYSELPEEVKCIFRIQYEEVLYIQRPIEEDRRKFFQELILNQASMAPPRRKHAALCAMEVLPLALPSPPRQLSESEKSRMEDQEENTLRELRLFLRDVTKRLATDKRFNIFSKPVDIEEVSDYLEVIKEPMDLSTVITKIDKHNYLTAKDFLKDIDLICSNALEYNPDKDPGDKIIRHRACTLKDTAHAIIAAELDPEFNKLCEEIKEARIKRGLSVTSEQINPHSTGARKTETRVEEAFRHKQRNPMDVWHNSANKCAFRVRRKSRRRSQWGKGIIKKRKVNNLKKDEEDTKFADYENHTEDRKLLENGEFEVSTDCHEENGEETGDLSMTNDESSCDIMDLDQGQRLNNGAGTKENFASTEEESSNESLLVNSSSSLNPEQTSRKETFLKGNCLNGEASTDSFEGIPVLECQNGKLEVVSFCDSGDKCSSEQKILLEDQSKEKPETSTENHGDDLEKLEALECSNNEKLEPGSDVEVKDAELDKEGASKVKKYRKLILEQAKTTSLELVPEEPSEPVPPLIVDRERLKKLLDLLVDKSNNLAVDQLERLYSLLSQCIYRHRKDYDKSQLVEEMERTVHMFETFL
The test is described as follows: Binding affinity to human ATAD2B BRD assessed as dissociation constant by isothermal titration calorimetry.

As to H-AGGK(Ac)AGK(Ac)DSGKAKTK-OH, the Kd result in test [1] and in test [2] was “Not Active” throughout.

Regarding `CC(=O)NCCCC[C@H](NC(=O)[C@H](CC(=O)O)NC(=O)[C@H](CCCNC(=N)N)NC(=O)CNC(=O)[C@@H](N)CO)C(=O)NCC(=O)NCC(=O)N[C@@H](CCCCN)C(=O)NCC(=O)N[C@@H](CC(C)C)C(=O)NCC(=O)N[C@@H](CCCCN)C(=O)NCC(=O)NCC(=O)N[C@@H](C)C(=O)O`, the Kd result in test [1] and in test [2] was “Not Active” in each case.

Consider H-SGRGKTGGKARAKAKSR-OH, for which the Kd entry in test [1] and in test [2] was “Not Active” each time.

In the case of H-AGGKAGKDSGKAKTK-OH, the Kd result in test [1] and in test [2] was “Not Active” throughout.

On to H-AGGK(Ac)AGKDSGKAKTK-OH, for which, in test [1], the Kd result is on record as “Not Active”.

On to `CC(=O)NCCCC[C@H](NC(=O)[C@H](CO)NC(=O)[C@H](CCCNC(=N)N)NC(=O)CNC(=O)[C@@H](N)CO)C(=O)NCC(=O)NCC(=O)N[C@@H](CCCCN)C(=O)NCC(=O)N[C@@H](CC(C)C)C(=O)NCC(=O)N[C@@H](CCCCN)C(=O)NCC(=O)NCC(=O)N[C@@H](C)C(=O)O`, for which the Kd result in test [1] and in test [2] was “Not Active” throughout.
